Source: patent US20220064736A1, “UROTHELIAL CANCER AND METHODS OF DETECTION AND TARGETED THERAPY” (THE JOHNS HOPKINS UNIVERSITY, priority 2015, published 2022)

How the values were obtained:
GULP1 transcript = assay: 5-Aza-dC treatment of UC cell lines, GULP1 expression by RT-PCR; assay type: cell-based, human
Method: Twenty four hours before treatment, cells were plated at low density (1-3×10^6 cells, dependent on growth characteristics of the respective cell line) in T75 cm^2 Tissue Culture Flasks (BD Biosciences, Bedford, Mass., USA). Stock solutions of 100 mM 5-Aza-dC (Sigma-Aldrich, St. Louis, Mo.) and 5 mM Trichostatin A (TSA) (Sigma-Aldrich) were prepared with DMSO (Sigma-Aldrich). Immediately before addition to the cell culture medium, appropriate aliquots of the stock solutions were dissolved in PBS (pH 7.5). Cells were treated with 5 μM 5-Aza-dC for 3 to 5 days. Medium with 5-Aza-dC was changed daily. Additionally, combination treatment with 5-Aza-dC and TSA was performed by adding 5 μM of 5-Aza-dC daily for 5 days and TSA (300 nmol/L) was added to the medium for the final 24 hours. Cells were harvested 24 hours after the last day of treatment (5-Aza-dC only and 5-Aza-dC+TSA) for RNA extraction and the analysis of gene expression by Reverse Transcriptase-PCR (RT-PCR).
Total RNA (500 ng) from cell lines and from bladder tissue were reverse-transcribed with qScript cDNA SuperMix™ (Quanta BioSciences) kit. The primers were designed by using Primer3 software. Actin type B (ACTB) was used as a loading control. […] Expression of the gene of interest was quantified by 2^−ΔΔCT method.

[1] = system: T24 shGULP1 cells versus T24 shScramble cells; assay: MTT viability assay upon treatment with serial dilution of cisplatin; assay type: cell-based, human; conditions: T24 shGULP1 vs T24 shScramble, different concentrations of CDDP
[2] = system: muscle-invasive bladder cancer (MIUC); conditions: patients with MIUC, neo-adjuvant chemotherapy preceding radical surgery; cited from earlier work
[3] = system: GULP1 localization in T24 cells; assay: Confocal imaging of GULP1 subcellular localization upon blocking nuclear export; assay type: cell-based, human; conditions: treatment for 5 hours
Method: To this end, the subcellular localization of GULP1 was determined by confocal microscopy analysis and nuclear-cytoplasm fractionation experiments using T24 cell line. The findings indicate that GULP1 localized in both nucleus and cytoplasm (FIG. 3d, upper and lower panel, and FIG. 8a). Ubiquitous localization pattern of GULP1 was further confirmed by performing immunofluorescence and confocal microscopy analysis by using two different antibodies against GULP1 and upon blocking nuclear export machinery by Leptomycin B (LMB) treatment for 5 hours (T24 cells in FIG. 3d and FIG. 8b).
Cells were grown on glass coverslips for 72 hs. After fixation in 4% paraformaldehyde, they were incubated in PBS 0.2% Glycine, permeabilized with PBS 10% Triton X100 for 10 minutes and incubated in Blocking buffer (PBS 3% BSA, 10% goat serum, 0.02% Tween) for 2-3 hours at r.t.
Incubation with the indicated primary antibodies (see Table 5) has been performed at 4° C. in the dark. After 5 washing with PBS 0.02% Tween, coverslips have been incubated with the indicated secondary antibodies (Table 5) for 1 h at r.t. For the case actin cytoskeleton analysis, after fixation, the coverslips have been incubated 90 minutes with Alexa Fluor® 488 Phalloidin (Life Technologies, 1:1000 in PBS). […] Slides were examined and photographed using a fluorescence microscope.

[4] = molecular target: T1, Nuclear factor E2-related factor 2 (Nrf2) (UniProt Q16236 1-605, limits assumed); assay: co-immunoprecipitation of endogenous GULP1 from whole-cell lysates (BFTC905, BFTC909, HUC1, T24), western blot
T1 construct: Endogenous protein from lysates of human cell lines; also called NFE2L2; NF2EL2
T1 sequence (looked up): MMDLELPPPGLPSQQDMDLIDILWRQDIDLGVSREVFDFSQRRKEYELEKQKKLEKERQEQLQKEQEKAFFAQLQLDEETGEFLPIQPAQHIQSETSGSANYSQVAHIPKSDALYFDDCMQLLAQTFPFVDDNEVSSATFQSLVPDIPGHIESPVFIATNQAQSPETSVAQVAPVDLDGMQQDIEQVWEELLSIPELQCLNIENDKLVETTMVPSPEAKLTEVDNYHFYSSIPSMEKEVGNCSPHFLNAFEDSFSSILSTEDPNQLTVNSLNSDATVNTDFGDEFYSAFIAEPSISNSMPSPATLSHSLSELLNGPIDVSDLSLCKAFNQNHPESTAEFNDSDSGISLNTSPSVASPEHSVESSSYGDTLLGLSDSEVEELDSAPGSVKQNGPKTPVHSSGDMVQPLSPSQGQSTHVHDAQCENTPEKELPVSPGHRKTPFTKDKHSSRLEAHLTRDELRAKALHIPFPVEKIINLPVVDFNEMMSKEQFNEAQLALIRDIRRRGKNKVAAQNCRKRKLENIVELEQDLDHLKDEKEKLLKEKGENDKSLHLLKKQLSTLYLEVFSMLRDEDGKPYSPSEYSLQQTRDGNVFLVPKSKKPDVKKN
Source text: (§1) a. […] Confocal imaging analysis of T24 cells. […] A not related protein antibody was used as a negative control for IP and 10% of whole cell lysate was used as input. d.

[5] = molecular target: T2, BTB and CNC homology 1 (Bach1) (UniProt O14867 1-736); assay: as above
T2 construct: Endogenous protein from lysates of human cell lines
T2 sequence (looked up): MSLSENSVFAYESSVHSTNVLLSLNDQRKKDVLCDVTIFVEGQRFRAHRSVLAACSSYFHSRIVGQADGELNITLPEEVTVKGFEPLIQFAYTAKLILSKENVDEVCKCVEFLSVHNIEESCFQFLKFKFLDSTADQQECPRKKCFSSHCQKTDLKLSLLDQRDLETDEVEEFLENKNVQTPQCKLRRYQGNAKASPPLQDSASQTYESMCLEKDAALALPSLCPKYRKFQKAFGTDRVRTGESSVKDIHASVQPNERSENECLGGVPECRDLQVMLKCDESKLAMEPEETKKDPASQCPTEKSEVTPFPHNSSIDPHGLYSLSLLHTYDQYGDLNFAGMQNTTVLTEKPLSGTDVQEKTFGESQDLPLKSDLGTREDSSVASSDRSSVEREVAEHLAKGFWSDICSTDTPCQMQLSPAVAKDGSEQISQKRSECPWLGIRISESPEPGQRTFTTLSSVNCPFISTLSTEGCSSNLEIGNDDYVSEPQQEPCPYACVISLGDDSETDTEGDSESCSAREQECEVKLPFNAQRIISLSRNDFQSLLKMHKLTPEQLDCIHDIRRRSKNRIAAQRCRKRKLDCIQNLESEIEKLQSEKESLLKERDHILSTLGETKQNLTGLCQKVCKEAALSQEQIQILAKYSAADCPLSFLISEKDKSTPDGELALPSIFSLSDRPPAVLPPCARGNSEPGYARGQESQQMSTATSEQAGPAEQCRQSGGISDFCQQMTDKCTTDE
Source text: as §1

Molecule: Nc1ncn([C@H]2C[C@H](O)[C@@H](CO)O2)c(=O)n1 [5-aza-dC, 5-Aza-2′-deoxycytidine]
- GULP1 transcript level (GULP1 transcript; HT-1376 and SW780 UC cells, 5-azadC with or without trichostatin A (TSA), consistent with promoter demethylation): several fold increase in GULP1 transcript
- GULP1 reactivation (GULP1 transcript; UC cell lines): reactivation of GULP1 was observed

Molecule: [NH2][Pt]([NH2])([Cl])[Cl] [CDDP, Cisplatin]
- Cell viability of GULP1 knock-down cells compared with control cells [1]: significantly higher viability than the control cells
- overall long-term survival benefit [2]: 6%

Molecule: CCC(=C/[C@H](C)C/C=C/C(C)=C/[C@@H](C)C(=O)[C@@H](C)[C@H](O)[C@@H](C)C/C(C)=C/C(=O)O)/C=C/[C@@H]1OC(=O)C=C[C@@H]1C [Leptomycin B]
- GULP1 nuclear export [3]: prevent GULP1 from going out from nucleus

B1: PTB Domain-Containing Engulfment Adaptor Protein1 (GULP1) (other, human, UniProt Q9UBP9 1-304, looked up)
chain: MNRAFSRKKDKTWMHTPEALSKHFIPYNAKFLGSTEVEQPKGTEVVRDAVRKLKFARHIKKSEGQKIPKVELQISIYGVKILEPKTKEVQHNCQLHRISFCADDKTDKRIFTFICKDSESNKHLCYVFDSEKCAEEITLTIGQAFDLAYRKFLESGGKDVETRKQIAGLQKRIQDLETENMELKNKVQDLENQLRITQVSAPPAGSMTPKSPSTDIFDMIPFSPISHQSSMPTRNGTQPPPVPSRSTEIKRDLFGAEPFDPFNCGAADFPPDIQSKLDEMQEGFKMGLTLEGTVFCLDPLDSRC
notes: Endogenous protein from cell lysates; also called engulfment adaptor PTB domain containing 1; human homologue of CED-6
- binding result [4]: no binding
- binding result [5]: no binding
